Measurements: publication PMC2789240, “Comparative structural, kinetic and inhibitor studies of Trypanosoma brucei trypanothione reductase with T. cruzi^” (Molecular and Biochemical Parasitology, 2010)
Like-named read-outs stand apart in the source and are kept apart here.

Tests used:
[1] = biological target: T1, TcTryR (recombinant T. cruzi trypanothione reductase) (Trypanosoma cruzi, UniProt P28593); assay: 412 nm DTNB-coupled trypanothione reductase assay (IC50, Km); assay type: biochemical; details: 412 nm assay, T(S)2 at S = Km (10.4 μM), weighted mean of three occasions
T1 construct: made in house
T1 sequence (P28593 whole entry): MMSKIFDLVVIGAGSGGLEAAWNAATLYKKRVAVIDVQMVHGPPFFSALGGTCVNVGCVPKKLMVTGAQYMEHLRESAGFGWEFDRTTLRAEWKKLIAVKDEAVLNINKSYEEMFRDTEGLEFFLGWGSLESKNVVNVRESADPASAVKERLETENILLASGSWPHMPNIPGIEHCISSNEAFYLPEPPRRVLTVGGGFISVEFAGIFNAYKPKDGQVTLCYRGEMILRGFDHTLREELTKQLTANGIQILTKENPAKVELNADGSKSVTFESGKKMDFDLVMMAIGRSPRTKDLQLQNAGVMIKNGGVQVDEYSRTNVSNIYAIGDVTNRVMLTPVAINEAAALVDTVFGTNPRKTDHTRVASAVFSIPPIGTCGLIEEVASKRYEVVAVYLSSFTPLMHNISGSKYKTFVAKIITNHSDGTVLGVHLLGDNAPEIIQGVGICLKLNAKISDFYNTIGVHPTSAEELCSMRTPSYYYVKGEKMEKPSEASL
Protocol: Assay plates were prepared using a Precision2000 liquid handler (Bio-Tek) with a final DMSO concentration of 1% in all wells. Plates contained a 10-point serial dilution (2-fold or 3-fold dilutions) across columns 2–11 with a top concentration of 100 μM or 200 μM. […] Column 1 contained full signal controls (no inhibitor) and column 12 contained background controls (no enzyme). […] Z′ figures were calculated from the full signal and background controls.

[2] = test system: TbTryR (recombinant T. b. brucei trypanothione reductase)
[3] = test system: Bloodstream form T. b. brucei cells (strain 427, 'single marker'); details: cited from earlier work
[4] = biological target: T2, TbTryR (recombinant T. b. brucei trypanothione reductase) (Trypanosoma brucei brucei, UniProt Q389T8); assay: biochemical
T2 sequence (Q389T8 entry or part of it): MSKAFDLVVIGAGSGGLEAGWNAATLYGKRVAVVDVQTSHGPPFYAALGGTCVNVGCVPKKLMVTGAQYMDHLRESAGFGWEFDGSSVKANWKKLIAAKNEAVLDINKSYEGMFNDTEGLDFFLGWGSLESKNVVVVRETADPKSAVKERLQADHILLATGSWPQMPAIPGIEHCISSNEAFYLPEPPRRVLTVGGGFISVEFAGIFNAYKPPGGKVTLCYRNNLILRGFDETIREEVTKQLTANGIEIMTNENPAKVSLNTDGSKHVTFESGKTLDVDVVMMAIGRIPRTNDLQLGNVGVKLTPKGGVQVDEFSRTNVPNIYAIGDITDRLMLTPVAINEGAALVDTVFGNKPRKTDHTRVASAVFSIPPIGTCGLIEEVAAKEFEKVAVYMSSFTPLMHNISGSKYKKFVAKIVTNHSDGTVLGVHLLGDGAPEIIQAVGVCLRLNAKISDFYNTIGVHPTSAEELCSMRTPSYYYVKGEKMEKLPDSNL

African trypanosomiasis [5] = test system: African trypanosomiasis; parameters: method as in PMID 3503414; details: 50 mg kg^-1, i.p.; cited from earlier work
TbTryR = TbTryR (Trypanosoma brucei brucei, UniProt Q389T8); assay: Modified 412 nm DTNB-coupled assay with NADPH regeneration by glucose-6-phosphate dehydrogenase; assay type: biochemical; details: NADPH-regenerating system, 6 μM T(S)2
Sequence of TbTryR (Q389T8 entry or part of it): as above
Protocol: In order to determine Km with respect to NADPH using the 412 nm DTNB assay, NADPH levels were maintained constant using glucose-6-phosphate and glucose-6-phosphate dehydrogenase from Saccharomyces cerevisiae. […] The final assay mixture contained 40 mM HEPES pH 7.4, 1 mM EDTA, ∼10 mU ml^−1 TryR, 6 μM T(S)2, 50 μM DTNB and 0.2–200 μM NADPH (7-point 3-fold serial dilution). Assays were initiated by addition of the NADPH. Km values with respect to NADPH were determined for TbTryR in three independent experiments and a weighted mean calculated.

[6] = test system: Bloodstream form T. b. brucei cells (strain 427, 'single marker'); assay: Growth inhibition of bloodstream form T. b. brucei (resazurin); assay type: cell-based; details: Trypanosoma brucei, 72 h, 3 days incubation, weighted mean of three experiments
Protocol: Bloodstream form T. b. brucei cells (strain 427, ‘single marker’) were grown at 37 °C and 5% CO2 in a modified HMI9 [21] (HMI9-T where 0.2 mM 2-mercaptoethanol was replaced with 0.056 mM thioglycerol). Stock cultures were maintained in T75 vented cap culture flasks (Greiner, Kremsmuenster, Austria) and sub-cultured every 48–72 h by dilution into fresh medium. For microtitre plate assays, cells were counted using a Casy cell counter TT (Schärfe systems) and diluted appropriately. Compounds were tested in 96-well test plates (Greiner). The final conditions were 50–0.07 μM test compound (9-point 3-fold serial dilutions), 0.5% DMSO, 10^3 ml^−1 cells in a total volume of 0.2 ml. Plates were incubated for 3 days, resazurin was added to a final concentration of 45 μM and plates incubated for a further 4 h. Fluorescence was measured at 528 nm excitation and 590 nm emission. EC50 values were determined in three separate experiments and the data reported as weighted means.

African trypanosomiasis [7] = test system: African trypanosomiasis; parameters: method as in Halliburton and Fairlamb, unpublished; details: 50 mg kg^-1, i.p., acute mouse model; ref Halliburton and Fairlamb, unpublished; cited from earlier work
[8] = test system: L. donovani trypanothione reductase; parameters: method as in PMID 7607216; details: read-out: Km T(S)2 (by NADPH oxidation); cited from earlier work
[9] = biological target: T2, TbTryR (recombinant T. b. brucei trypanothione reductase); details: 150 μM NADH as electron donor, 412 nm assay
[10] = ratio of IC50 values at respective S = Km

CN(C)CCC(=O)c1cccc([N+](=O)[O-])c1 [DM6a]
IC50 [1]: 3.8 ± 0.2 µM
Ratio Tc/Tb (IC50 TcTryR / IC50 TbTryR) [2, 10]: 1.2
EC50 ([3]; ref Martyn et al. [19]): 0.68 ± 0.1 µM
IC50 [4]: 3.2 ± 0.16 µM

CCN(CC)CCCC(C)Nc1c2ccc(Cl)cc2nc2ccc(OC)cc12 (centres unmarked) [Quinacrine]
IC50 [1]: 37.8 ± 1.91 µM
Ratio Tc/Tb (IC50 TcTryR / IC50 TbTryR) [2]: 1.7
IC50 [4]: 22.1 ± 2.05 µM

CSc1ccc2c(c1)N(CCC1CCCCN1C)c1ccccc1S2 (centres unmarked) [Thioridazine]
activity in the chronic mouse model of African trypanosomiasis (African trypanosomiasis [5]): inactive

NC(=O)C1=CN([C@@H]2O[C@H](COP(=O)(O)OP(=O)(O)OC[C@H]3O[C@@H](n4cnc5c(N)ncnc54)[C@H](OP(=O)(O)O)[C@@H]3O)[C@@H](O)[C@H]2O)C=CC1 [NADPH]
Km (TbTryR): 0.77 ± 0.01 µM

CN(C)CCCC1(c2ccc(F)cc2)OCc2cc(C#N)ccc21 (centres unmarked) [Citalopram]
IC50 [1]: 154 ± 5.42 µM
EC50 [6]: 6.59 ± 0.54 µM
Ratio Tc/Tb (IC50 TcTryR / IC50 TbTryR) [2, 10]: 1.9
IC50 [4]: 82.3 ± 6.35 µM

CN(C)CCCN1c2ccccc2CCc2ccc(Cl)cc21 [Clomipramine]
extension of survival time (African trypanosomiasis [7]): failed to extend survival time by even one day

CN(C)CCC(=O)c1ccc(Cl)c(Cl)c1 [DM8a]
IC50 [1]: 7.99 ± 0.51 µM
Ratio Tc/Tb (IC50 TcTryR / IC50 TbTryR) [2]: 2.5
EC50 ([3]; ref Martyn et al. [19]): 1 ± 0.21 µM
IC50 [4]: 3.17 ± 0.17 µM

O=c1c2ccccc2[se]n1-c1ccccc1 [Ebselen]
IC50 [1]: 0.6 ± 0.01 µM
Ratio Tc/Tb (IC50 TcTryR / IC50 TbTryR) [2, 10]: 3.3
EC50 ([3]; ref Richardson et al. [33]): 2.97 µM
IC50 [4]: 0.18 ± 0.01 µM

N[C@@H](CCC(=O)N[C@H]1CSSC[C@H](NC(=O)CC[C@H](N)C(=O)O)C(=O)NCC(=O)NCCCNCCCCNC(=O)CNC1=O)C(=O)O [T(S)2, trypanothione disulphide]
Km [8]: 36 µM

CN(C)CCC(=O)c1ccc(S(C)(=O)=O)cc1 [DM5a]
IC50 [1]: 16.9 ± 1.08 µM
Ratio Tc/Tb (IC50 TcTryR / IC50 TbTryR) [2, 10]: 2.5
EC50 ([3]; ref Martyn et al. [19]): 0.55 ± 0.04 µM
IC50 [4]: 6.8 ± 0.42 µM

CN1CCN(CCCN2c3ccccc3Sc3ccc(C(F)(F)F)cc32)CC1 [Trifluoperazine]
IC50 [1]: 20.9 ± 0.9 µM
EC50 [6]: 2.11 ± 0.5 µM
activity in the chronic mouse model of African trypanosomiasis (African trypanosomiasis [5]): inactive

NC(=O)C1=CN([C@@H]2O[C@H](COP(=O)(O)OP(=O)(O)OC[C@H]3O[C@@H](n4cnc5c(N)ncnc54)[C@H](O)[C@@H]3O)[C@@H](O)[C@H]2O)C=CC1 [NADH]
Activity relative to that obtained with 150 μM NADPH [9]: 5.7%

CC(C)(C)c1cc(CN(CCO)CCO)cc(C(C)(C)C)c1O [DM7a]
IC50 [1]: 27.8 ± 2.08 µM
Ratio Tc/Tb (IC50 TcTryR / IC50 TbTryR) [2, 10]: 1.4
EC50 ([3]; ref Martyn et al. [19]): 3.01 ± 0.3 µM
IC50 [4]: 19.2 ± 1.75 µM
